Assay results as given in patent publication US9365556B2, “3,5-diaminopyrazole kinase inhibitors” (Axikin Pharmaceuticals, Inc., priority 2012, dated 2016).

Assays:
[1] = target: T1, kinase domain protein of RC kinase (Homo sapiens, UniProt Q56UN5); assay: Enzymatic assay for kinase inhibitory activity (Crebtide substrate, LANCE read-out); type: biochemical; conditions: compound at 1 μM
T1 sequence (Q56UN5 1061-1324 limits assumed): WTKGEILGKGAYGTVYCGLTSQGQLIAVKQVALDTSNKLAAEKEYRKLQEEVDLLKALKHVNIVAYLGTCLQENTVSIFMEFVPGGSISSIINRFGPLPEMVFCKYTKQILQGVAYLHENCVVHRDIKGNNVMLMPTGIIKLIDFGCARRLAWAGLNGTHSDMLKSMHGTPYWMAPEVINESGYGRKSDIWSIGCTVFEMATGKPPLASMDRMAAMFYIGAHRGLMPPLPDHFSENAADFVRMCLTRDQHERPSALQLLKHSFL
Method: Solutions of a test compound, Crebtide (a substrate), a kinase, and ATP were prepared using 1×MAPK Buffer (50 mM HEPES, 1 mM EGTA, […], 10 mM MgCl2, 2 mM DTT, and 0.01% Tween 20).
To each well, the test compound (1 μL) was first added (in duplicate) to reach a final concentration of 1 μM or 1×IC50 of the compound. The kinase (5 μl) was then added to each well to reach a final concentration of […] for the kinase domain or […] for the full-length domain. Each plate included a positive and negative controls in duplicate wells. Crebtide (2.5 μL) was then added to each well in duplicate to reach a final concentration of 50 nM. If the full-length kinase was used, the plates were incubated for 45 min at room temperature before proceeding further. ATP (2.5 μL) was added to each well to reach a final concentration of 1 μM for the kinase domain and 3 μM for the full-length.
After the addition of ATP, the plates were incubated for 45 min at room temperature. During the incubation, an EDTA solution (40 mM) and anti-Crebtide ([…]) were prepared. Additionally, a detection buffer stock solution was diluted ten fold before use.
After the incubation, the anti-Crebtide (5 μL) and EDTA (5 μL) were added to each well to reach their final concentrations of […] and 10 mM, respectively. The plates were allowed to develop at room temperature for 45 min. The plates were then read at 665 nm and 615 nm using Perkin Elmer Lance machine.
The biological results of inhibition of the kinase domain protein of RC kinase are summarized in Tables 2 and 3, wherein A represents at least 50% inhibition of the RC kinase activity at 1 μM; B represents no greater than 50% but at least 20% inhibition of the RC kinase activity at 1 μM; C represents no greater than 20% but at least 5% inhibition of the RC kinase activity at 1 μM; and D represents no greater than 5% inhibition of the RC kinase activity at 1 μM.

| SMILES | inhibition at 1 µM [1] | melting point | Activity (inhibition of the RC kinase activity) [1] | Activity (inhibition of the RC kinase activity) ([1]; 1 µM) |
| --- | --- | --- | --- | --- |
| N#Cc1c(Nc2cccc(Cl)c2)n[nH]c1/N=C/c1c[nH]nc1-c1ccc(F)cc1 [Compound A1] | ≤ 5% | 127 to 132 °C |  |  |
| N#Cc1c(Nc2cccc(Cl)c2)n[nH]c1/N=C/c1ccc(Cl)cc1Cl [Compound A4] | ≤ 5% | 277 to 281 °C |  |  |
| N#Cc1c(Nc2cccc(Cl)c2)n[nH]c1N=Cc1ccc(O)c([N+](=O)[O-])c1 [Compound A5, 3-((3-chlorophenyl)amino)-5-((4-hydroxy-3-nitrobenzylidene)amino)-1H-pyrazole-4-carbonitrile] | 20 to 50% | 286 to 288 °C |  |  |
| N#Cc1c(Nc2ccccc2)n[nH]c1/N=C/c1ccc(Cl)cc1 [Compound A7] | 5 to 20% | 276 to 278 °C |  |  |
| N#Cc1c(Nc2ccccc2)n[nH]c1/N=C/c1cccc2ccccc12 [Compound A8] | 5 to 20% | 259 to 263 °C |  |  |
| N#Cc1c(Nc2ccccc2)n[nH]c1/N=C/c1ccccc1 [Compound A9] | 20 to 50% | 257 to 260 °C |  |  |
| N#Cc1c(Nc2ccccc2)n[nH]c1/N=C/c1ccc(O)c([N+](=O)[O-])c1 [Compound A10] | 5 to 20% | 284 to 286 °C |  |  |
| N#Cc1c(Nc2cccc(Cl)c2)n[nH]c1/N=C/c1ccccc1 [Compound A11] | 5 to 20% | 260 to 264 °C |  |  |
| N#Cc1c(Nc2cccc(Cl)c2)n[nH]c1/N=C/c1ccc(Cl)cc1 [Compound A12] | 20 to 50% | 283 to 286 °C |  |  |
| COc1ccc(/C=N/c2[nH]nc(Nc3cccc(Cl)c3)c2C#N)cc1 [Compound A13] | 5 to 20% | 263 to 266 °C |  |  |
| N#Cc1c(Nc2cccc(Cl)c2)n[nH]c1/N=C/c1ccc(C(F)(F)F)cc1 [Compound A15, 3-((3-chlorophenyl)amino)-5-((4-(trifluoromethyl)benzylidene)amino)-1H-pyrazole-4-carbonitrile] | 5 to 20% | 279 to 282 °C |  |  |
| N#Cc1c(Nc2ccccc2)n[nH]c1/N=C/c1ccc([N+](=O)[O-])cc1 [Compound A19] | 5 to 20% | 290 to 294 °C |  |  |
| N#Cc1c(Nc2cccc(Cl)c2)n[nH]c1/N=C/c1ccc(O)cc1 [Compound A20] | ≤ 5% | 242 to 245 °C |  |  |
| COc1cc(/C=N/c2[nH]nc(Nc3ccccc3)c2C#N)ccc1O [Compound A21, 5-((4-hydroxy-3-methoxybenzylidene)amino)-3-(phenylamino)-1H-pyrazole-4-carbonitrile] | 5 to 20% | 208 to 214 °C |  |  |
| N#Cc1c(Nc2ccccc2)n[nH]c1/N=C/c1ccc(O)cc1 [Compound A22] | ≤ 5% | 241 to 245 °C |  |  |
| COc1ccccc1/C=N/c1[nH]nc(Nc2cccc(Cl)c2)c1C#N [Compound A23] | 20 to 50% | 239 to 241 °C |  |  |
| COc1ccccc1/C=N/c1[nH]nc(Nc2ccccc2)c1C#N [Compound A26] | 5 to 20% | 202 to 206 °C |  |  |
| N#Cc1c(Nc2cccc(Cl)c2)n[nH]c1/N=C/c1cc(F)cc2c1OCOC2 [Compound A29, 3-((3-chlorophenyl)amino)-5-(((6-fluoro-4H-benzo[d][1,3]dioxin-8-yl)methylene)amino)-1H-pyrazole-4-carbonitrile] | 5 to 20% | 248 to 251 °C |  |  |
| N#Cc1c(Nc2ccccc2)n[nH]c1/N=C/c1cc(F)cc2c1OCOC2 [Compound A30] | 5 to 20% | 247 to 251 °C |  |  |
| N#Cc1c(Nc2ccc(Cl)cc2)n[nH]c1/N=C/c1ccc(O)cc1 [Compound A32] | 5 to 20% | 286 to 288 °C |  |  |
| COc1ccc(/C=N/c2[nH]nc(Nc3ccc(Cl)cc3)c2C#N)cc1 [Compound A33] | ≤ 5% | 290 to 291 °C |  |  |
| N#Cc1c(Nc2ccc(Cl)cc2)n[nH]c1/N=C/c1ccc(Cl)cc1 [Compound A35] | ≤ 5% | 296 to 300 °C |  |  |
| COc1ccccc1/C=N/c1[nH]nc(Nc2ccc(Cl)cc2)c1C#N [Compound A38] | ≤ 5% | 262 to 265 °C |  |  |

| SMILES | inhibition at 1 µM [1] | melting point | Activity (inhibition of the RC kinase activity) [1] | Activity (inhibition of the RC kinase activity) ([1]; 1 µM) |
| --- | --- | --- | --- | --- |
| N#Cc1c(Nc2ccc(Cl)cc2)n[nH]c1/N=C/c1cccc2ccccc12 [Compound A40] | ≤ 5% | 289 to 292 °C |  |  |
| COc1ccc(Nc2n[nH]c(/N=C/c3ccc(O)c([N+](=O)[O-])c3)c2C#N)cc1 [Compound A42] | ≤ 5% | 274 to 275 °C |  |  |
| COc1ccc(/C=N/c2[nH]nc(Nc3ccc(OC)cc3)c2C#N)cc1 [Compound A43] | ≤ 5% | 246 to 250 °C |  |  |
| COc1ccc(Nc2n[nH]c(/N=C/c3ccc([N+](=O)[O-])cc3)c2C#N)cc1 [Compound A46] | ≤ 5% | 242 to 248 °C |  |  |
| N#Cc1c(NC2CC2)n[nH]c1/N=C/c1ccc(O)cc1 [Compound A48, 3-(cyclopropylamino)-5-((4-hydroxybenzylidene)amino)-1H-pyrazole-4-carbonitrile] | ≤ 5% | 220 to 228 °C |  |  |
| CC(C)(C)c1ccc(Nc2n[nH]c(/N=C/c3ccc(Cl)cc3)c2C#N)cc1 [Compound A53] | 5 to 20% | 288 to 290 °C |  |  |
| COc1ccc(Nc2n[nH]c(/N=C/c3ccc(O)cc3)c2C#N)cc1 [Compound A54] | 5 to 20% | 193 to 197 °C |  |  |
| COc1cc(/C=N/c2[nH]nc(Nc3cccc(Cl)c3)c2C#N)ccc1OCc1cnc(Cl)s1 [Compound A60] | 5 to 20% | 210 to 220 °C |  |  |
| N#Cc1c(Nc2cccc(Cl)c2)n[nH]c1/N=C/c1ccc(Oc2ccc(C(F)(F)F)cn2)cc1 [Compound A61] | 5 to 20% | 264 to 268 °C |  |  |
| Cn1nc(CSc2ccccc2)c(/C=N/c2[nH]nc(Nc3cccc(Cl)c3)c2C#N)c1Cl [Compound A62] | 5 to 20% | 194 to 202 °C |  |  |
| N#Cc1c(Nc2cccc(Cl)c2)n[nH]c1/N=C/C1CCCN1C(=O)OCc1ccccc1 (centres unmarked) [Compound A63] | 5 to 20% | 65 to 72 °C |  |  |
| N#Cc1c(Nc2cccc(Cl)c2)n[nH]c1/N=C/c1cccn1S(=O)(=O)c1ccccc1 [Compound A64] | 20 to 50% | 217 to 225 °C |  |  |
| N#Cc1c(Nc2cccc(Cl)c2)n[nH]c1/N=C/c1ccc(S(F)(F)(F)(F)F)cc1 [Compound A65, 3-((3-chlorophenyl)amino)-5-((4-(pentafluorolthio)benzylidene)amino)-1H-pyrazole-4-carbonitrile] | 5 to 20% | 200 to 216 °C |  |  |
| N#Cc1c(Nc2cccc(Cl)c2)n[nH]c1/N=C/c1ccc(-n2cnc3ccccc32)cc1 [Compound A67] | 20 to 50% | 308 to 310 °C |  |  |
| N#Cc1c(Nc2cccc(Cl)c2)n[nH]c1/N=C/c1c[nH]c2c(F)c(F)c(F)c(F)c12 [Compound A68] | 5 to 20% | 343 to 347 °C |  |  |
| COc1ccc(C(F)(F)F)cc1/C=N/c1[nH]nc(Nc2cccc(Cl)c2)c1C#N [Compound A75] | ≤ 5% | 189 to 197 °C |  |  |
| N#Cc1c(Nc2cccc(Cl)c2)n[nH]c1/N=C/c1cccc(Oc2ncccn2)c1 [Compound A76] | 5 to 20% | 234 to 239 °C |  |  |
| N#Cc1c(Nc2cccc(Cl)c2)n[nH]c1/N=C/c1ccc(N2CCOCC2)nc1 [Compound A79] | ≤ 5% | 273 to 279 °C |  |  |
| NC(=O)c1c(Nc2cccc(Cl)c2)n[nH]c1/N=C/c1cc[nH]c1 [Compound B111] | ≥ 50% |  |  |  |
| NC(=O)c1c(Nc2ccccc2Cl)n[nH]c1/N=C/c1ccccc1 [Compound B115] |  |  | B (no greater than 50% but at least 20% inhibition of the RC kinase activity at 1 μM) |  |
| NC(=O)c1c(Nc2ccccc2Cl)n[nH]c1/N=C/c1cc(O)ccc1[N+](=O)[O-] [Compound B116] |  |  | C (no greater than 20% but at least 5% inhibition of the RC kinase activity at 1 μM) |  |
| NC(=O)c1c(Nc2cccc(Cl)c2)n[nH]c1/N=C/c1ccc(Oc2ncccn2)cc1 [Compound B123] |  |  |  | B (no greater than 50% but at least 20% inhibition of the RC kinase activity at 1 μM) |
